These results are taken from US6340703B1, “Treatment or prevention of osteoporosis” (Novogen, Inc., priority 1997, dated 2002).

One data set concerns estrogen receptors. Particulars: relative to 17p-estradiol 100; cited from earlier work.
A further data set has as its system bone resorption. Conditions: Tobe et al 1997; cited from earlier work.
In data set [1] the test system is post-menopausal women. Kind of data set: Greene Score for menopausal symptoms, 3 month study (Example 4). It counts as in vivo, human. Particulars: 15 mg or 60 mg daily for 3 months, compared to placebo control group. How it is done:
A group of 36 post-menopausal women experiencing menopausal symptoms were treated with a composition containing either 15 mg daidzein or 60 mg daidzein administered on a daily basis for 3 months.

The subject of data set [2] is post-menopausal women. Kind of data set: Greene Score for menopausal symptoms, 60 mg formononetin (Example 6). The data set is classed as in vivo, human. Conditions: 60 mg daily for three months, relative to a control group. Here is the method: 15 post-menopausal women who are experiencing menopausal systems are each administered 60 mg formononetin daily for three months.

The test system of data set [3] is post-menopausal women. Put plainly: six month double-blind placebo-controlled study of bone density and bone resorption markers (Example 7). It counts as in vivo, human. Particulars: 25 mg, 50 mg or 75 mg daily, six months, with 1200 mg calcium per day. Here is the method:
The second study (double-blind, placebo-controlled) involved a six month study of the effects of phytoestrogen formononetin on bone resorption markers in twenty post-menopausal women. The aim of the study was to evaluate the efficacy of a defined daily quantity of isoflavone at 25 mg, 50 mg or 75 mg on bone resorption makers in post menopausal women and compare these to normal controls The effects of isoflavones on endometrial thickness, circulatory lipids and coagulation factors were also evaluated. Subjects were also given supplemental calcium in a dose of 1200 mg per day.

A short description of data set [4]: pharmacokinetic study of formononetin following oral administration. It counts as in vivo. Particulars: blood; human, oral 9.3 mg formononetin; read-out: half life in the blood stream (converted). Here is the method:
A pharmacokinetic study involving 16 human patients aged between 18 and 40 was conducted, to determine the pharmacokinetics of formononetin following oral administration. Each patient was orally administered 9.3 mg of formononetin with 200 ml of purified water and maintained a low isoflavone diet for one week prior to, and during the study. Blood samples were taken at 0, 0.25, 0.5, 0.75, 1.0, 1.5, 2.0, 2.5, 3, 4, 5, 6, 8, 10 and 12 and 24 hours post administration, and analysed for formononetin concentration.

In data set [5] the test system is post-menopausal women. Put plainly: bone density and bone turnover markers in high risk group for osteoporosis (Example 6). The data set is classed as in vivo, human. Particulars: 60 mg daily for three months, preliminary results. How it is done:
A similar study involving 10 post-menopausal women in a high risk group for osteoporosis were also administered 60 mg formononetin daily for three months.

A further data set relates to endometrial cancer cells. Particulars: Markiewicz et al 1993; potentiated cancer cell growth; cited from earlier work.

Turning to `COc1ccc(-c2coc3cc(O)cc(O)c3c2=O)cc1` [biochanin, reference compound], in the data set on estrogen receptors, the relative estrogenicity is recorded as 0.07.
As for `O=c1c(-c2ccc(O)cc2)coc2cc(O)ccc12` [daidzein, 7,4-dihydroxy isoflavone], in the data set on estrogen receptors, the relative estrogenicity is 0.09. For the same molecule, in the data set on bone resorption, the “effect on bone resorption” value is listed as “stimulates bone resorption”. Also, the “Greene Score for menopausal symptoms” value in the data set with post-menopausal women [1] is on record as “significant decrease”.
Regarding `COc1ccc(-c2coc3cc(O)ccc3c2=O)cc1` [formononetin], in the data set on estrogen receptors, the relative estrogenicity is reported as 0.01. The “Greene Score for menopausal symptoms” value with post-menopausal women [2] and in the data set with post-menopausal women [1] was “significant decrease” throughout. Further, the “bone density at three sites of the forearm” value in the data set on post-menopausal women [3] is “significant improvement in bone density”. Further, the half-life (usually the time needed for the level to fall by half in the phase considered) in data set [4] was roughly 20 h. For the same molecule, in the data set on post-menopausal women [5], the “protection against osteoporosis by bone density and bone turnover markers” value is “protection against osteoporosis”.
Turning to `O=c1c(-c2ccc(O)cc2)coc2cc(O)cc(O)c12` [genistein], in the data set with endometrial cancer cells, the “estrogen effect on endometrial cancer cells” value is “exhibited an estrogen effect on endometrial cancer cells”.
